Measured values taken from patent publication US20130190310A1, “MIG6 AND THERAPEUTIC EFFICACY” (THE JOHNS HOPKINS UNIVERSITY, priority 2010, published 2013).
Entries after “also recorded” stand apart in the source; their conditions may differ.

Experiments:
tumors in Errfil−/− mice = conditions: cited from earlier work
[1] = system: tumors in control Errfil+/+ mice; conditions: cited from earlier work
NSCLC = conditions: patients randomized to gefinitib or placebo; cited from earlier work
Mig6 [2] = test: Immunoblot analysis of Mig6 expression in SCC-R cells; type: cell-based, human; conditions: for expression of Mig6: AKI or U0126 10 or 20 μM, LY294002 10 or 25 μM, rapamycin 1 or 2 μM
Source text: Antibodies against EGFR, phospho-tyrosine (P-Tyr-100), phospho-EGFR (Tyr1068), phospho-HER2/ErbB2 (Tyr1248), AKT, phospho-AKT (Ser473), p44/42 MAPK, (Erk1/2), phospho-p44/42 MAPK (Erk1/2) (Thr202/Tyr204), and PTEN were obtained from Cell Signaling Technology, Inc. (Beverly, Mass.). Monoclonal anti-P-Actin antibody was obtained from Sigma (St. Louis, Mo.). Polyclonal anti-Mig6 antibody was a generous gift from Dr. Ferby (15). […] Equal amounts of protein were mixed with Laemmli sample buffer, run on 4-12% NuPAGE gels and transferred to nitrocellulose membrane (Bio-Rad Laboratories, Hercules, Calif.). The membrane was probed with primary antibody followed by HRP-conjugated appropriate secondary antibodies (Santa Cruz Biotech, Santa Cruz, Calif.), and detected by enhanced chemiluminescence (ECL, GE Health Care, Piscataway, N.J.).

EGFR [3] = test: Immunoblot/densitometric analysis of phospho-EGFR/total EGFR in SCC-R cells; type: cell-based, human; conditions: inhibitor 24 hrs (25 μM LY294002, 20 μM AKI, 2 μM rapamycin, 20 μM U0126), then 10 ng/ml EGF 30 min
Experimental: (§1) Antibodies against EGFR, phospho-tyrosine (P-Tyr-100), phospho-EGFR (Tyr1068), phospho-HER2/ErbB2 (Tyr1248), AKT, phospho-AKT (Ser473), p44/42 MAPK, (Erk1/2), phospho-p44/42 MAPK (Erk1/2) (Thr202/Tyr204), and PTEN were obtained from Cell Signaling Technology, Inc. (Beverly, Mass.). Monoclonal anti-P-Actin antibody was obtained from Sigma (St. Louis, Mo.). Polyclonal anti-Mig6 antibody was a generous gift from Dr. Ferby (15). When appropriate, cells were cultured in serum free medium overnight, pretreated with the indicated inhibitors for 3 hrs or […], and the treated with 10 ng/ml EGF for 10 or 30 min. Equal amounts of protein were mixed with Laemmli sample buffer, run on 4-12% NuPAGE gels and transferred to nitrocellulose membrane (Bio-Rad Laboratories, Hercules, Calif.). The membrane was probed with primary antibody followed by HRP-conjugated appropriate secondary antibodies (Santa Cruz Biotech, Santa Cruz, Calif.), and detected by enhanced chemiluminescence (ECL, GE Health Care, Piscataway, N.J.).

Mig6 [4] = test: Immunoblot analysis of Mig6 expression in 358 cells; type: cell-based, human; conditions: 24 hrs
Experimental: as §1

SCC-S and SCC-R cells = test: Cell viability and drug sensitivity assay (Calcein AM), erlotinib-sensitive vs -resistant isogenic cells; type: cell-based, human; conditions: erlotinib 72 hrs, cell viability
Experimental: Drug resistant cell lines were generated via a process of slowly escalating exposure to erlotinib, as reported previously (16). SCC-S is used to designate the parental UM-SCCI cells exposed to DMSO, and SCC-R refers to the erlotinib resistant clone.
(§2) Cells were plated at a density of 3000/well in 96-well plates. The following day, cells were treated with 0, 0.01, 0.033, 0.1, 0.33, 1, or 3.3 μM erlotinib for an additional 72 hrs. Cell viability was subsequently assayed using Calcein AM (Invitrogen), Fluorescence signals generated as a result of Calcein AM cleavage by viable cells were read by a Molecular Devices plate reader (Sunnyvale, Calif.) using an excitation frequency of 480 nm, and an emission frequency of 535 nm.

EGFR [5] = test: Immunoblot of EGF-induced EGFR phosphorylation in bladder and lung cancer cell lines; type: cell-based, human; conditions: all bladder and lung cancer cell lines tested; 0.1 μM erlotinib 3 hrs before 10 ng/ml EGF
Experimental: as §1, with “Equal amounts of protein were mixed with Laemmli sample buffer, run on 4-12% NuPAGE gels and transferred to nitrocellulose membrane (Bio-Rad Laboratories, Hercules, Calif.).” left out

H358 cells = test: Cell viability of parental and TGF β-induced H358 cells; type: cell-based, human; conditions: TGF-β-induced mesenchymal-like cells vs parental
Experimental: as §2

Mig6 [6] = test: Immunoblot analysis of Mig6 expression in 358/TGFβ1-day 21 and 358/TGFβ3-day 21 cells; type: cell-based, human; conditions: 24 hrs
Experimental: as §1

BML-5 = test: Erlotinib treatment of directly xenografted lung tumors; type: in vivo, nude mice; conditions: BML-5 compared with BML-1, BML-7, BML-11
Experimental: (§3) The xenografts were generated and erlotinib treatment was performed as published previously (17, 18). Relative tumor growth inhibition (TGI) was calculated as the relative tumor growth of treated mice divided by relative tumor growth of control mice (T/C). The animals were maintained in accordance to guidelines of the American Association of Laboratory Animal Care and the research protocol was approved by the Johns Hopkins University Animal Use and Care Committee.

PANC410 = test: Erlotinib treatment of directly xenografted pancreatic tumors; type: in vivo, nude mice
Experimental: as §3

PANC420 = test: as above; type: in vivo, nude mice
Experimental: as §3

PANC140 = test: as above; type: in vivo, nude mice
Experimental: as §3

PANC294 = test: as above; type: in vivo, nude mice
Experimental: as §3

PANC215 = test: as above; type: in vivo, nude mice
Experimental: The xenografts were generated and erlotinib treatment was performed as published previously (17, 18). Relative tumor growth inhibition (TGI) was calculated as the relative tumor growth of treated mice divided by relative tumor growth of control mice (T/C).

[7] = 150 mg per day; cited from earlier work
serum proteins = conditions: cited from earlier work

SMILES: COc1cc2ncnc(Nc3ccc(F)c(Cl)c3)c2cc1OCCCN1CCOCC1 [gefitinib]
- sensitivity of carcinogen-induced tumors to gefitinib (tumors in Errfil−/− mice; Errfil−/− mice): unusually sensitive
- tumor regression (tumors in Errfil−/− mice; in 1 week following initiation of gefitinib treatment): more than 50%
- tumor response to gefitinib [1]: did not respond
- overall difference of PFS vs placebo (NSCLC): 7 days

SMILES: O=c1[nH]c2ccccc2n1C1CCN(Cc2ccc(-c3nc4cc5[nH]cnc5cc4nc3-c3ccccc3)cc2)CC1 [AKI]
- expression of Mig6 (Mig6 [2]; 24 hrs): decreased
- ratio of phospho-EGFR to EGFR (EGFR [3]): increased

SMILES: N#CC(=C(/N)Sc1ccccc1N)/C(C#N)=C(\N)Sc1ccccc1N [U0126]
- expression of Mig6 (Mig6 [2]; 24 hrs): decreased
- ratio of phospho-EGFR to EGFR (EGFR [3]): increased
- expression of Mig6 (Mig6 [4]): reduced

SMILES: C#Cc1cccc(Nc2ncnc3cc(OCCOC)c(OCCOC)cc23)c1 [erlotinib]
- IC50 of SCC-R cells relative to SCC-S cells (SCC-S and SCC-R cells): > 10 times
- basal Mig6 expression (Mig6 [2]; 0.2 or 1 μM erlotinib, 24 hrs): only a slight decrease
- EGF-induced Mig6 upregulation (Mig6 [2]; erlotinib pretreatment 30 min then 10 ng/ml EGF 24 hrs): completely abolish
- ligand-induced EGFR phosphorylation (EGFR [5]): effectively block
- resistance to erlotinib, cell viability (H358 cells): acquired increasing resistance
- expression of Mig6 (Mig6 [4]): reduced
- expression of Mig6 (Mig6 [6]): failed to suppress
- response of lung xenograft to erlotinib (tumor growth) (BML-5): sensitive; also recorded: better response
- erlotinib responsiveness of xenografted pancreatic tumor (PANC410): erlotinib-sensitive
- erlotinib responsiveness of xenografted pancreatic tumor (PANC420): erlotinib-resistant
- erlotinib responsiveness of xenografted pancreatic tumor (PANC140): erlotinib-resistant
- erlotinib responsiveness of xenografted pancreatic tumor (PANC294): erlotinib-resistant
- erlotinib responsiveness of xenografted pancreatic tumor (PANC215): erlotinib-resistant
- steady-state serum concentration, median [7]: 2.9 µM
- bound to serum proteins (serum proteins): 90%
